In publication PMC8640094, “Diaportones A–C: Three New Metabolites From Endophytic Fungus Diaporthe foeniculina BZM-15” (Frontiers in Chemistry, 2021):

Key:
HepG2 (hepatoma cancer) = assay: MTT cytotoxicity assay, HepG2 cells; assay type: cell-based, human; conditions: Homo sapiens; for inhibition at 1 µM / inhibition at 2 µM / inhibition at 4 µM / inhibition at 8 µM / inhibition at 16 µM / inhibition at 32 µM / inhibition at 64 µM / inhibition at 128 µM: HepG2, 72 h, three replicates, read-out: cell inhibition; for inhibition at 1 µM: HepG2, c 1.00 μM; for inhibition at 2 µM: HepG2, c 2.00 μM; for inhibition at 4 µM: HepG2, c 4.00 μM; for inhibition at 8 µM: HepG2, c 8.00 μM; for inhibition at 16 µM: HepG2, c 16.00 μM; for inhibition at 32 µM: HepG2, c 32.00 μM; for inhibition at 64 µM: HepG2, c 64.00 μM; for inhibition at 128 µM: HepG2, c 128.00 μM; for IC50: HepG2, MTT, 72 h, mean ± SD (n = 3)
Procedure: (§1) The cytotoxicity of all compounds against three human tumor cell lines, SF-268 (CNS cancer), MCF-7 (breast cancer), and HepG2 (hepatoma cancer), and normal cell line LX-2 was tested using the MTT assay. Adriamycin was used as a positive control. All cells were seeded into 96-well plates at 5 × 10^4 cells/ml and incubated at 37°C under a 5% CO2 atmosphere for 24 h. Then, the tested compounds were added. After 72 h, MTT solution was added into each well, which was further incubated. The cell-free supernatant was removed and formazan crystals were subsequently dissolved in DMSO. Optical density (OD) was recorded at 490 nm on a microplate reader to calculate the IC50 values.

SF-268 (CNS cancer) = assay: MTT cytotoxicity assay, SF-268 cells; assay type: cell-based, human; conditions: Homo sapiens; for inhibition at 1 µM / inhibition at 2 µM / inhibition at 4 µM / inhibition at 8 µM / inhibition at 16 µM / inhibition at 32 µM / inhibition at 64 µM / inhibition at 128 µM: SF-268, 72 h, SF268 cells, triplicate values, read-out: cell inhibition; for inhibition at 1 µM: c 1.00 μM; for inhibition at 2 µM: c 2.00 μM; for inhibition at 4 µM: c 4.00 μM; for inhibition at 8 µM: c 8.00 μM; for inhibition at 16 µM: c 16.00 μM; for inhibition at 32 µM: c 32.00 μM; for inhibition at 64 µM: c 64.00 μM; for inhibition at 128 µM: c 128.00 μM; for IC50: SF-268, MTT, 72 h, mean ± SD (n = 3), read-out: IC50 SF268
Procedure: as §1

normal cell line LX-2 = assay: MTT cytotoxicity assay, normal cell line LX-2; assay type: cell-based; conditions: 72 h; for inhibition at 1 µM: LX-2, c 1.00 μM; for inhibition at 1 µM / inhibition at 2 µM / inhibition at 4 µM / inhibition at 8 µM / inhibition at 16 µM / inhibition at 32 µM / inhibition at 64 µM / inhibition at 128 µM: three replicates; for inhibition at 2 µM: LX-2, c 2.00 μM; for inhibition at 4 µM: LX-2, c 4.00 μM; for inhibition at 8 µM: LX-2, c 8.00 μM; for inhibition at 16 µM: LX-2, c 16.00 μM; for inhibition at 32 µM: LX-2, c 32.00 μM; for inhibition at 64 µM: LX-2, c 64.00 μM; for inhibition at 128 µM: LX-2, c 128.00 μM; for IC50: MTT, mean ± SD (n = 3)
Procedure: as §1, with “Adriamycin was used as a positive control.” left out

MCF-7 (breast cancer) = assay: MTT cytotoxicity assay, MCF-7 cells; assay type: cell-based, human; conditions: Homo sapiens; for inhibition at 1 µM / inhibition at 2 µM / inhibition at 4 µM / inhibition at 8 µM / inhibition at 16 µM / inhibition at 32 µM / inhibition at 64 µM / inhibition at 128 µM: MCF7, 72 h, three replicates, read-out: cell inhibition; for inhibition at 1 µM: MCF-7, c 1.00 μM; for inhibition at 2 µM: MCF-7, c 2.00 μM; for inhibition at 4 µM: MCF-7, c 4.00 μM; for inhibition at 8 µM: MCF-7, c 8.00 μM; for inhibition at 16 µM: MCF-7, c 16.00 μM; for inhibition at 32 µM: MCF-7, c 32.00 μM; for inhibition at 64 µM: MCF-7, c 64.00 μM; for inhibition at 128 µM: MCF-7, c 128.00 μM; for IC50: MCF7, MTT, 72 h, mean ± SD (n = 3)
Procedure: as §1, with “Adriamycin was used as a positive control.” left out

Row | Compound | inhibition at 1 µM (HepG2 (hepatoma cancer)) | inhibition at 2 µM (HepG2 (hepatoma cancer)) | inhibition at 4 µM (HepG2 (hepatoma cancer)) | inhibition at 8 µM (HepG2 (hepatoma cancer)) | inhibition at 16 µM (HepG2 (hepatoma cancer)) | inhibition at 32 µM (HepG2 (hepatoma cancer)) | inhibition at 64 µM (HepG2 (hepatoma cancer)) | inhibition at 128 µM (HepG2 (hepatoma cancer)) | IC50 (HepG2 (hepatoma cancer)) | inhibition at 1 µM (SF-268 (CNS cancer)) | inhibition at 2 µM (SF-268 (CNS cancer)) | inhibition at 4 µM (SF-268 (CNS cancer)) | inhibition at 8 µM (SF-268 (CNS cancer)) | inhibition at 16 µM (SF-268 (CNS cancer)) | inhibition at 32 µM (SF-268 (CNS cancer)) | inhibition at 64 µM (SF-268 (CNS cancer)) | inhibition at 128 µM (SF-268 (CNS cancer)) | IC50 (SF-268 (CNS cancer)) | inhibition at 1 µM (normal cell line LX-2) | inhibition at 2 µM (normal cell line LX-2) | further results
1 | CC(C)[C@@H](C)/C=C/[C@@H](C)C1CCC2C3=CC(=O)OC4=CC(=O)CC[C@]4(C)C3CC[C@@]21C (some centres unmarked) [compound 9, fortisterol] | 5.37% | 11.1% | 15.3% | 20.5% | 31.6% | 48.2% | 75.7% | 89.3% | > 40 µM | 8.97% | 14.6% | 19.2% | 24.9% | 30.3% | 45.1% | 80.5% | 82.4% | > 40 µM | 9.02% | 13.6% | inhibition at 4 µM (normal cell line LX-2): 18.5%; inhibition at 8 µM (normal cell line LX-2): 25.5%; inhibition at 16 µM (normal cell line LX-2): 31.9%; inhibition at 32 µM (normal cell line LX-2): 44.7%; inhibition at 64 µM (normal cell line LX-2): 79.3%; inhibition at 128 µM (normal cell line LX-2): 82.5%; IC50 (normal cell line LX-2): > 40 µM; inhibition at 1 µM (MCF-7 (breast cancer)): 6.87%; inhibition at 2 µM (MCF-7 (breast cancer)): 14.1%; inhibition at 4 µM (MCF-7 (breast cancer)): 17.4%; inhibition at 8 µM (MCF-7 (breast cancer)): 21.5%; inhibition at 16 µM (MCF-7 (breast cancer)): 31.4%; inhibition at 32 µM (MCF-7 (breast cancer)): 43.2%; inhibition at 64 µM (MCF-7 (breast cancer)): 76.1%; inhibition at 128 µM (MCF-7 (breast cancer)): 86.4%; IC50 (MCF-7 (breast cancer)): > 40 µM
2 | CC(=O)OC(C)C(C)=CC=CC1(C)OC(=O)C(C)C1O (centres unmarked) [compound 1, diaportone A] | 8.32% | 14.4% | 21.3% | 23.1% | 30.1% | 46.5% | 71.3% | 80.3% | > 40 µM | 2.75% | 3.91% | 3.45% | 6.33% | 15.7% | 22.2% | 37.9% | 69.3% | > 40 µM | 3.47% | 5.08% | inhibition at 4 µM (normal cell line LX-2): 9.11%; inhibition at 8 µM (normal cell line LX-2): 8.98%; inhibition at 16 µM (normal cell line LX-2): 15.6%; inhibition at 32 µM (normal cell line LX-2): 31.7%; inhibition at 64 µM (normal cell line LX-2): 45.1%; inhibition at 128 µM (normal cell line LX-2): 70.3%; IC50 (normal cell line LX-2): > 40 µM; inhibition at 1 µM (MCF-7 (breast cancer)): 7.76%; inhibition at 2 µM (MCF-7 (breast cancer)): 12.6%; inhibition at 4 µM (MCF-7 (breast cancer)): 17.8%; inhibition at 8 µM (MCF-7 (breast cancer)): 23.1%; inhibition at 16 µM (MCF-7 (breast cancer)): 29.1%; inhibition at 32 µM (MCF-7 (breast cancer)): 32.5%; inhibition at 64 µM (MCF-7 (breast cancer)): 78.1%; inhibition at 128 µM (MCF-7 (breast cancer)): 83.4%; IC50 (MCF-7 (breast cancer)): > 40 µM
3 | CCCC(O)C1=C(C)C(=O)CC1C (centres unmarked) [compound 4, phomotenone] | 6.5% | 7.63% | 14.3% | 20.2% | 31.4% | 37.3% | 54.7% | 73% | > 40 µM | 5.57% | 8.31% | 7.46% | 13.1% | 23.8% | 46.7% | 74.3% | 82.1% | > 40 µM | 7.34% | 9.3% | inhibition at 4 µM (normal cell line LX-2): 12%; inhibition at 8 µM (normal cell line LX-2): 18.1%; inhibition at 16 µM (normal cell line LX-2): 24.6%; inhibition at 32 µM (normal cell line LX-2): 41.1%; inhibition at 64 µM (normal cell line LX-2): 70%; inhibition at 128 µM (normal cell line LX-2): 87.1%; IC50 (normal cell line LX-2): > 40 µM; inhibition at 1 µM (MCF-7 (breast cancer)): 3.45%; inhibition at 2 µM (MCF-7 (breast cancer)): 7.63%; inhibition at 4 µM (MCF-7 (breast cancer)): 13.1%; inhibition at 8 µM (MCF-7 (breast cancer)): 20.4%; inhibition at 16 µM (MCF-7 (breast cancer)): 27.3%; inhibition at 32 µM (MCF-7 (breast cancer)): 36.1%; inhibition at 64 µM (MCF-7 (breast cancer)): 50.6%; inhibition at 128 µM (MCF-7 (breast cancer)): 72.2%; IC50 (MCF-7 (breast cancer)): > 40 µM
4 | COc1cccc2c1C(=O)c1c(O)c3c(c(O)c1C2=O)C[C@@](O)(C(=O)CO)C[C@@H]3O[C@H]1C[C@H](N)[C@H](O)[C@H](C)O1 [Adriamycin, reference compound] | 33.1% | 48.5% | 66.2% | 74.1% | 89.4% | 86.2% | 96.3% | 95.3% | 2.2 ± 0.03 µM | 35.4% | 51.1% | 69.9% | 76% | 90.9% | 96.4% | 96.5% | 95.1% | 1.9 ± 0.03 µM | 8.56% | 9.36% | inhibition at 4 µM (normal cell line LX-2): 14.5%; inhibition at 8 µM (normal cell line LX-2): 26.4%; inhibition at 16 µM (normal cell line LX-2): 43.4%; inhibition at 32 µM (normal cell line LX-2): 56.2%; inhibition at 64 µM (normal cell line LX-2): 77.2%; inhibition at 128 µM (normal cell line LX-2): 98.1%; IC50 (normal cell line LX-2): > 40 µM; inhibition at 1 µM (MCF-7 (breast cancer)): 27.9%; inhibition at 2 µM (MCF-7 (breast cancer)): 51.4%; inhibition at 4 µM (MCF-7 (breast cancer)): 66.5%; inhibition at 16 µM (MCF-7 (breast cancer)): 97%; inhibition at 32 µM (MCF-7 (breast cancer)): 97.4%; inhibition at 64 µM (MCF-7 (breast cancer)): 97.1%; inhibition at 128 µM (MCF-7 (breast cancer)): 97.4%; IC50 (MCF-7 (breast cancer)): 1.5 ± 0.01 µM
